From patent US20070148723A1, “METHOD AND APPARATUS FOR DETECTING PRESENCE OF TOXIC MATERIAL WITHIN SAMPLE” (SAMSUNG ELECTRONICS CO., LTD., priority 2005, published 2007)

What was measured:
[1] = test system: electron transfer system of sub-mitochondrial particles; assay type: biochemical; conditions: for cathode peak current at 1.019 V relative to a sample of 0 wt %: 2.5 wt %, FIG. 4 / FIG. 5
From the text: FIGS. 1A is a diagram of an exemplary embodiment of a current measuring device; and FIG. 1B is a schematic diagram of an exemplary embodiment of a current measuring apparatus. Referring to FIG. 1A, a reaction vessel 10 includes an Ag/AgCl standard electrode 20 (RE in FIG. 1B), a platinum working electrode 30 (WE in FIG. 1B), and a platinum counter electrode 40 (CE in FIG. 1B). The standard electrode 20, the working electrode 30, and the counter electrode 40 are connected to a voltmeter 50 (e.g., a Perkin-Elmer VMP multichannel potentiostat; V in FIG. 1B). An X/Y plotter 60 is connected to the voltmeter 50. 0.5× PBS including 0.5 mg/ml of SMP (submitochondrial particle) (Havard Bioscience), 6 mM of NADH, and 50 mM of KCl was allowed to react at ambient temperature for 1 hour. […] The cyclic voltammogram was measured with a scan speed of 50 mV/sec CV at a sweep range of 0.85 to 1.35 V. […] FIG. 3 is a graph showing the cyclic voltammogram of 2.5 mM Ru(bpy)3^2+ in phosphate-buffered saline (PBS). Then, ethanol samples having final concentrations (on a weight basis) of 0 wt %, 2.5 wt %, 5 wt %, and 10 wt %, or a sample having 2.5 wt % of sorbitol was added to 0.5× PBS including 0.5 mg/ml of SMP, (submitochondrial particle), 6 mM of NADH, and 50 mM of KCl to prepare 7 ml of a final reaction solution and was allowed to react for 1 hour at ambient temperature. Next, absorbance of the final reaction solution was measured at 340 nanometers (nm) using a spectrophotometer and the concentration of NADH was measured using an optical method. […] The cyclic voltammogram was measured with a scan speed of 50 mV/sec CV at a sweep range of 0.85 to 1.35V.

[2] = test system: electron transfer system of sub-mitochondrial particles; assay: Optical method: NADH concentration by absorbance at 340 nm of SMP/NADH reaction solution; assay type: biochemical; conditions: 2.5 wt %
Description: Then, ethanol samples having final concentrations (on a weight basis) of 0 wt %, 2.5 wt %, 5 wt %, and 10 wt %, or a sample having 2.5 wt % of sorbitol was added to 0.5× PBS including 0.5 mg/ml of SMP, (submitochondrial particle), 6 mM of NADH, and 50 mM of KCl to prepare 7 ml of a final reaction solution and was allowed to react for 1 hour at ambient temperature. Next, absorbance of the final reaction solution was measured at 340 nanometers (nm) using a spectrophotometer and the concentration of NADH was measured using an optical method. […] The cyclic voltammogram was measured with a scan speed of 50 mV/sec CV at a sweep range of 0.85 to 1.35V.

[3] = 0.5 mg/ml SMP, 6 mM NADH, 1 hour at ambient temperature

| SMILES | effect on electron transfer reaction of sub-mitochondrial particles (toxicity) [1] | cathode peak current at 1.019 V in a cyclic voltammogram as concentration increases ([1]; 0, 2.5, 5 and 10 wt %, 0.5 mg/ml SMP, 6 mM NADH, 1 hour at ambient temperature, FIG. 4) | cathode peak current at 1.019 V relative to a sample of 0 wt % [1, 3] | toxicity by optical measurement ([2]; conclusion from absorbance at 340 nm) | absorbance at 340 nm compared to a sample of 0 wt % ([2]; spectrophotometer, data not illustrated) |
| --- | --- | --- | --- | --- | --- |
| CCO [ethanol] | obstructs the electron transfer reaction of sub-mitochondrial particles | moves towards in less negative (i.e., more positive, cathodic) direction | moves toward a less negative value | – | – |
| OC[C@@H](O)[C@@H](O)[C@H](O)[C@@H](O)CO [sorbitol] | does not include toxic material | – | moves towards a more negative value | no toxicity | no changes |
